Patent US6583122B2, “Nucleosides and oligonucleotides containing boron clusters” (Emory University, priority 1993, dated 2003)
“Also recorded” adds a separate entry of the source.

Key:
polyriboadenylic acid = test: Melting temperature (Tm) of duplexes with polyriboadenylic acid; format: binding; conditions: polyriboadenylic acid as target; PIPES buffer at 120 mM NaCl
d(A)12 = test: Melting temperature (Tm) of duplexes with d(A)12; format: binding; conditions: for Tm: d(A)12 as complementary strand, 1:1, PIPES buffer at 120 mM NaCl
Method: Melting Temperature (Tm) Measurements. Samples for Tm measurements were prepared by the addition of concentrated stock solutions of the d(T)12 (18) or CDU modified d(T)12 (19-24) and d(A)12stock solution to 1.0 mL 10 mM 1,4-piperazine-bis-(ethane-sulfonic acid) (PIPES) buffer (pH 7.0) containing 100 mM NaCl, and 1 mM EDTA, in amounts to give a 1:1 ratio. Each strand was present at 40 μM. Molar extinction coefficients ε260 (per base) were calculated as following: 18: 8,150; d(A)12: 12,280; 19-24: 8,200. The samples were heated to 85° C. and cooled slowly to room temperature before melting. The insulated cell compartment of the UV spectrophotometer was continuously warmed from 0° C. to 85° C. at the rate 0.5° C. per minute. Samples were heated in quartz cuvettes fitted with a teflon stopper (1 cm path length). The absorption change at 260 nm was followed as a function of temperature, and Tm values were obtained from first derivative plots after the data were transferred to a Macintosh computer for visualization and analysis.

[1] = tested on: Phosphodiesterase I (EC 3.1.4.1) type VIII from Crotalus durissus terrificus venom; test: Stability towards snake venom phosphodiesterase (SVPD) 3′-exonuclease, HPLC; format: in vitro ADME; conditions: for % remaining: SVPDE; for T½: degradation by SVPDE, disappearance of 12-mer (11-mer for CDU-modified oligos)
Method: Resistance of dodeca (thymidine phosphates) containing CDU (19-24) against phosphodiesterase I (EC 3.1.4.1): To 100 mM Tris-HCl buffer, pH 8.9 (90 μL) containing 20 mM MgCl2, 0.1 A260 ODU of oligonucleotide 19-24 (5 μL), 1.5×10-3 unit (5 μL) of phosphodiesterase was added. A blank with no enzyme, and a control reaction with d(T)12 were assayed simultaneously. Reactions were maintained at 37° C. for 10 minutes and then 50 μL aliquots were analyzed by HPLC under conditions described above.
The replacement of all natural phosphodiester linkages within oligonucleotide chain by methylphosphonate ones is an example of modifications that ensure complete stability of the oligonucleotide towards exo- and endonucleases. To test the resistance of CDU-oligonucleotides towards 3′-exonucleolytic activity (hydrolysis of the oligonucleotide from 3′-end), snake venom phosphodiesterase (SVPD) from Crotalus durissus terrificus was used. It was discovered that these oligonucleotides are remarkably stable to 3′-exonucleases if the CDU residue is incorporated in the 3′- or both 3′- and 5′-end. The oligonucleotide bearing both 3′- and 5′-modifications (24) was also resistant to SVPD and calf spleen phosphodiesterase.
The half-life (T½) of 3′-CDU-, 3′,5′-CDU- and 3′CDU2-oligonucleotides were determined by kinetic study of their degradation by SVPDE (snake venom phosphodiesterase). Aliquots of enzymatic reaction (0, 5, 10, 20, 40, 80 and 240 minutes) were analyzed by HPLC. Calculations of half life time were based on the disappearance of 12-mer (or 11-mer in the case of CDU-modified oligos) after standardization with 2′-deoxycytidine used as internal standard.

[2] = tested on: calf spleen phosphodiesterase; test: Resistance to calf spleen phosphodiesterase; format: in vitro ADME; conditions: in words
YMDD motif of HIV-1 RT = test: In vitro site directed mutagenesis of HIV-1 reverse transcriptase gene, transformation into E. coli and sequencing; format: cell-based; conditions: sequencing of mutants; for amino acid change: YMDD motif
From the text: Example 6 describes the in vivo mutation of the RT gene within the YMDD motif, incorporated into a proper vector in E. coli cells. The mutagenic oligonucleotide DNA target region is the conserved YMDD motif (nucleotides 5′ 2678 to 3′ 2689) of HIV-1 RT. The mutagenic oligonucleotides used were
The procedure for in vitro site directed mutagenesis used in this experiment was a modification of that used in the Altered Sites mutagenesis Kit #Q6210 (Promega Corp., Madison, Wis.). Briefly, oligonucleotides, 5′-AATACATGGA(CDU)GATTTGTAT-3′ (SEQ ID NO:1) and 5′-AATACATGG(CDU)(CDU)GATTTGTAT-3′ (SEQ ID NO:2), and a control, located on the putative catalytic active site for HIV-1 RT (5′-2676 to 3′-2696) were 5′ phosphorylated using T4 polynucleotide kinase. The reaction was terminated by heating to 70° C. for 10 min. The mutagenesis annealing reaction was performed by adding 0.05 pmol of pHIVALT-1 ssDNA, 0.25 pmol ampicillin repair oligonucleotide (supplied in the kit), 1.25 pmol of the 5′ phosphorylated mutagenic oligo, and an annealing buffer supplied in the kit in a final volume of 20 μL. The control oligonucleotide reactions for this experiment were done separately along with an added reaction that contained ampicillin repair oligo but no mutagenic oligo 5′-AATACATGGA(CDU)GATTTGTAT-3′ (SEQ ID NO: 1) and 5′-AATACATGG(CDU)(CDU) GATTTGTAT-3′ (SEQ ID NO:2) and control unmodified. The reactions were then heated to 70° C. for 5 min and allowed to cool to room temperature over a 15-20 min period. The annealing reactions were placed on ice and the following reagents were added: 3 μL 10× synthesis buffer (supplied in kit), 1 μL T4 DNA polymerase (10 U/μL ), 1 μL T4 DNA ligase (2 U/μL ), and 5 μL sterile dHO. The 30 μL reaction was incubated at 37° C. for 90 min to perform second strand synthesis and ligation. […]

Substance	Tm (polyriboadenylic acid)	Tm (d(A)12)	% remaining ([1]; time 0 min)	% remaining ([1]; time 5 min)	% remaining ([1]; time 10 min)	% remaining ([1]; time 40 min)	T½ [1]	also measured
5′d(T)CDUd(T)10 [Oligomer 20]	25.7 °C	27.2 °C						
5′CDUd(T)11 [Oligomer 19]								Tm (d(A)12; listed as 19): 28.0 °C; Tm (d(A)12; listed as CDU(dT)11): 28.8 °C
5′d(T)10CDUd(T) [Oligomer 22]		20.5 °C	100%	54.8%	44.0%	23.2%	6.7 min	% remaining ([1]; time 20 min): 38.3%; % remaining ([1]; time 80 min): 11.0%; difference in Tm (d(A)12; between oligonucleotides 20 and 22): 7-8 °C
5′d(T)9(CDU)2d(T) [Oligomer 23]	10.0 °C	15.3 °C	100%	82.0%		78.9%	76.2 min	% remaining ([1]; time 20 min): 80.0%; % remaining ([1]; time 80 min): 54.0%; % remaining ([1]; time 240 min): 10.5%
5′CDUd(T)9CDUd(T) [Oligomer 24]	17.0 °C	20.0 °C	100%	56.2%	38.1%	14.8%	5.06 min	resistance to calf spleen phosphodiesterase [2]: resistant; resistance towards 3′-exonucleolytic activity (SVPD) ([1]; in words): resistant
5′-AATACATGG(CDU)(CDU)GATTTGTAT-3′ [RL-2]								amino acid change (YMDD motif of HIV-1 RT): YMDD to YRVD
5′-AATACATGGA(CDU)GATTTGTAT-3′ [RL-1]								clones in which the mutation occurred next to the base opposite to CDU on the complimentary strand (YMDD motif of HIV-1 RT): 60%; amino acid change (YMDD motif of HIV-1 RT): YMDD to YMVD; also recorded: YMDD to YMGD
5′d(T)6CDUd(T)5 [Oligomer 21]		15.2 °C						
d(T)12 [Oligomer 18, reference compound]	30.0 °C	29.0 °C	100%	9.1%	2.6%		0.5 min	
